Data from patent US20240002350A1, “PROTEIN AND LIPID THERAPEUTIC TARGETS” (UNIVERSITY OF PITTSBURGH-OF THE COMMONWEALTH SYSTEM OF …, priority 2020, published 2024).
Read-outs that look alike come from different tables or passages of the source.

Key:
HOO-AA-PE = assay: RSL3-induced accumulation of pro-ferroptotic HOO-AA-PE in vitro; format: cell-based
From the text: (§1) FIGS. 7A-7C show 15LOX/[…] complex inhibitor, NCGC00599973-01.
(§2) It was established that a change in substrate specificity of 15LOX is achieved upon complex formation with PEBP1 whereby structural rearrangements are mainly responsible for the selectivity and specificity leading to the formation of 15-HOO-AA-PE as the oxidation product. Thus, new selective anti-ferroptotic inhibitors of 15LOX/PEBP1 complex were designed. These inhibitors should not interfere with oxidation of free AA, DPA, DHA. […] The compound is a poor inhibitor of 15LOX alone with free AA as a substrate. […] Site 1 is at 15LOX/PEBP1 binding interface (binding energy −10.1 kcal/mol) and site 2 is at catalytic site (binding energy −8.9 kcal/mol).

[1] = test system: whole body irradiation (9.25Gy); assay: Survival after whole body irradiation; format: in vivo; details: oxidant injury induced by ionizing radiation
From the text: as §1, §2

[2] = test system: ferroptosis triggered by RSL3 (GPX4 inhibition) or Erastin (GSH depletion) in cells; assay: Suppression of ferroptosis triggered by RSL3 or Erastin in cells; format: cell-based; details: read-out: half maximal activity, suppression of ferroptosis
Method: as §1
FER.1 (500 nM) is positive control. Insert: Chemical formula of two of the compounds.
as §2

15LOX/PEBP1 = assay: Potency of 15LOX/PEBP1 inhibitors with anti-ferroptotic effect (Table 1); format: cell-based
From the text: Development and testing of new compounds that inhibit 15LOX/PEBP1 complex activity. A combination of computational and experimental studies are used. […] Computer modeling considers specific features of organization of 15LOX/PEBP1 complexes and positioning of AA-PE as well as regio-specific oxygenation of AA-residues at 15th carbon. […] It has been shown that: i) binding interface of 15LOX in 15LOX/PEBP1 complex includes a helix on 15LOX (α2) and kinase binding epitope (D144, H145, R146) on PEBP1 (FIG. 8); and ii) interfacial interactions play a pivotal role in allosterically altering conformational dynamics of 15LOX in complex, and its substrate specificity. Analysis of change in access to catalytic site upon PEBP1 binding, using elastic network models indicates needed sites at 15LOX/PEBP1 binding interface. Dynamics simulations are also performed, for 15LOX alone and 15LOX/PEBP1 complex. An effective inhibitor, NCG-01, with in vivo activity has been indicated. Several other 15LOX/PEBP1 inhibitors with anti-ferroptotic effect (FIG. 9) have been identified. To test the effectiveness of compounds identified from the computational screen, RSL3 and mechanical stretch models with LDH and PI assays as a primary outcome are performed. The compounds that inhibit cell death by at least 50% are then evaluated for their effects on AA-PE and AA oxidation by 15LOX/PEBP1 complex and 15LOX alone, respectively, by LC-MS. Evaluation of the effect of compounds in suppressing AA-PE-OOH formation in cells upon proferroptotic stimuli is also performed.

15LOX alone = assay: Inhibition of 15LOX alone with free AA as a substrate; format: biochemical; details: 20 μM
From the text: as §2
(§3) Development and testing of new compounds that inhibit 15LOX/PEBP1 complex activity. A combination of computational and experimental studies are used. […] Computer modeling considers specific features of organization of 15LOX/PEBP1 complexes and positioning of AA-PE as well as regio-specific oxygenation of AA-residues at 15th carbon. […] The compounds that inhibit cell death by at least 50% are then evaluated for their effects on AA-PE and AA oxidation by 15LOX/PEBP1 complex and 15LOX alone, respectively, by LC-MS. […]

15LOX/PEBP1 complex = assay: Inhibition of activity of 15LOX/PEBP1 complex; format: biochemical
From the text: as §2, §3

Structure (SMILES): Fc1cccc(-n2cc(-c3ccccc3)nc2SCc2ccc(C(F)(F)F)cc2)c1 [Compound 12, 1-(3-fluorophenyl)-4-phenyl-2-((4-(trifluoromethyl)benzyl)thio)-1H-imidazole]
- RSL3-induced accumulation of pro-ferroptotic HOO-AA-PE (HOO-AA-PE): suppresses
- survival [1]: improves survival
- EC50 ([2]; ferroptosis triggered by Erastin (GSH depletion) in cells): 140 nM
- EC50 ([2]; ferroptosis triggered by RSL3 (GPX4 inhibition) in cells): 175 nM
- Potency (15LOX/PEBP1): ++ (++ = 101-1000 nM)
- inhibition of 15LOX alone (15LOX alone): ~4.5%
- activity of 15LOX/PEBP1 complex (15LOX/PEBP1 complex): inhibits activity
